{
  "source": "patent US20240307351A1",
  "about": "“AGENT FOR ANTI-AGING OR FOR CELLULAR REJUVENATION” (TOHOKU UNIVERSITY, priority 2022, published 2024)",
  "key": {"[1]": {"tested_on": "SIRTI protein", "experiment": "Amount of SIRT1 protein in RH30 cells by Western blotting", "format": "cell-based, human", "settings": "30 μM, 24 hours, compared with Control group (DMSO)", "protocol": "RH30 cells (human rhabdomyosarcoma cell line; gli gene expression+, N-myc gene expression+) at 1×10^6 cell/dish were seeded and cultured in a dish containing 10 mL of a culture solution (low-glucose-containing DMEM medium (glucose concentration of 1.0 g/dL) to which 10 wt. % of FBS was added). One day later, Compound #5 was added to have a concentration of 30 μM, and the mixture was cultured for 24 hours ([Compound #5 addition group]). Compound #9, Compound #13, Compound #21, Compound #30, or Compound #35 as the present compound was added in place of Compound #5, and the mixture was cultured in the same manner, respectively, as [Compound #9 addition group], [Compound #13 addition group], [Compound #21 addition group], [Compound #30 addition group], and […].\nOn the other hand, as a control, DMSO (dimethyl sulfoxide) was added to have a concentration of 0.2 wt. %, and the mixture was cultured for 24 hours ([Control group]).\nAfter completion of culture, the cells were recovered, disrupted by a typical method, and the amount of each of the proteins (SIRTI proteins, etc.) in the cells was detected by Western blotting. Further, the results of quantification of each band in the detection results of the Western blotting in FIG. 6 through normalization with the band of β-actin as a loading control are shown in FIG. 7."}, "[2]": {"tested_on": "C57BL6 mice (12 weeks old)", "experiment": "Treadmill running test of young mice", "format": "in vivo, mouse", "settings": "oral, 2 months; for decrease in the running time on a treadmill: young C57BL6 mice (12 weeks old); for time to exhaustion: young C57BL6 mice, compared to Vehicle group", "protocol": "Water-suspended Compound #5 was orally administered to C57BL6 mice (12 weeks old) at a dose of 50 mg/kg/day per kg of mouse weight for 2 months ([MA5 high dose addition group], n=5).\nWater-suspended Compound #5 was orally administered to C57BL6 mice (12 weeks old) at a dose of 10 mg/kg/day per kg of mouse weight for 2 months ([MA5 low dose addition group], n=5).\nIn addition, water was orally administered to C57BL6 mice (12 weeks old) for 2 months ([Vehicle group], n=5)."}, "[3]": {"tested_on": "liver cells of aged mice", "experiment": "RNA-Seq and ChIP-Atlas analysis of liver cells of aged mice", "format": "in vivo, mouse", "settings": "oral, 50 mg/kg/day, 2 months, Table 4", "protocol": "Water-suspended Compound #5 was orally administered to C57BL6 mice (92 weeks old) at a dose of 50 mg/kg/day per kg of mouse weight for 2 months ([MA5 addition group], n=5). After 2 months of oral administration, the mice were 101 weeks old.\nIn addition, water was orally administered to C57BL6 mice (92 weeks old) for 2 months ([Vehicle group], n=5). After 2 months of oral administration, the mice were 101 weeks old.\nRNA sequencing (RNA-Seq) analysis was performed on the liver cells of aged mice in [MA5 addition group] and [Vehicle group] to identify genes whose expression levels changed (increased or decreased) in [MA5 addition group] as compared with the […]. Using the results of these gene names, integrated analysis with ChIP-Atlas was performed to investigate transcription factors possibly related to these genes."}, "[4]": {"tested_on": "cochlear cells of the inner ear of Ndufs4 knockout mice", "experiment": "RNA-Seq, pathway and ChIP-Atlas analysis of cochlear cells of Ndufs4 knockout mice", "format": "in vivo, mouse", "settings": "oral, 50 mg/kg/day, 2 weeks", "protocol": "Water-suspended Compound #5 was orally administered to Ndufs4 (NADH-ubiquinone oxidoreductase subunit 4) knockout mice (6 weeks old) at a dose of 50 mg/kg/day per kg of mouse weight for 2 weeks ([MA5 addition group], n=5).\nIn addition, water was orally administered to Ndufs4 knockout mice (6 weeks old) for 2 weeks ([Vehicle group], n=5).\nRNA sequence (RNA-Seq) analysis was performed on cochlear cells of the inner ear of Ndufs4 knockout mice of [MA5 addition group] and [Vehicle group] described above, and genes whose expression levels changed (increased or decreased) in [MA5 addition group] as compared with [Vehicle group] were identified. Based on the names of the genes, pathway analysis was performed on genes whose expression has varied in the inner ear cells of the Ndufs4 knockout mice in [MA5 addition group].\nThe results of the names of the genes whose expression levels increased or decreased in the Ndufs4 knockout mice of [MA5 addition group] as compared with the Ndufs4 knockout mice of [Vehicle group] in the RNA sequence (RNA-Seq) analysis were used to perform integrated analysis with ChIP-Atlas to investigate transcription factors possibly related to these genes."}, "[5]": {"tested_on": "fibrosis-related genes (aSMA and Colla1)", "experiment": "Real-time PCR of fibrosis-related genes in renal tissue of α-Klotho gene-deficient mice", "format": "in vivo", "settings": "oral, 10 mg/kg mouse weight/day, 28 to 60 days old", "protocol": "Water-suspended Compound #5 was orally administered to α-Klotho gene-deficient mice (28 days old) at a dose of 10 mg/kg mouse weight/day until 60 days old (Klotho homo KO mouse administration group, n=3).\nIn addition, water was orally administered to wild-type mice (28 days old) and α-Klotho gene-deficient mice (28 days old) until 60 days old (n=3 for each of the wild-type non-administrated group and the Klotho homo KO mouse non-administrated group).\nRenal tissue was collected from each 60-day-old mouse according to a standard method, total RNA was extracted using a commercially available column extraction kit (RNeasy Micro Kit, manufactured by QIAGEN), and cDNA was synthesized from 1 μg of total RNA using ReverTra Ace(manufactured by TOYOBO CO., Ltd.). Thereafter, to quantify mRNA derived from two types of fibrosis-related genes (aSMA and Colla1) and mRNA derived from GAPDH as an internal standard, real-time PCR was performed according to a standard method using QuantStudio 5 Real-time PCR system (manufactured by Applied Biosystems) as a measuring instrument and THUNDERBIRD SYBR qPCR MasterMix (manufactured by TOYOBO CO., Ltd.) as a reaction liquid."}},
  "data": [
    {"smiles": "O=C(CC(C(=O)O)c1c[nH]c2ccccc12)c1ccc(F)cc1F", "note": "(stereo not drawn) [Compound #5, 4-(2,4-difluorophenyl)-2-(1H-indole-3-yl)-4-oxo-butanoic acid]", "values": [
      {"measurement": "amount of SIRTI protein in cells", "setting": "[1]", "result": "increased"},
      {"measurement": "decrease in the running time on a treadmill", "setting": "[2]; 10 mg/kg/day (low dose)", "result": "inhibited"},
      {"measurement": "decrease in the running time on a treadmill", "setting": "[2]; 50 mg/kg/day (high dose)", "result": "inhibited"},
      {"measurement": "time to exhaustion", "setting": "[2]; 10 mg/kg/day (low dose)", "result": "significantly improved"},
      {"measurement": "time to exhaustion", "setting": "[2]; 50 mg/kg/day (high dose)", "result": "significantly improved"},
      {"measurement": "transcription factors related to genes whose expression increased (ChIP-Atlas)", "setting": "[3]", "result": "FOXO1 known as longevity genes and PPARA"},
      {"measurement": "IGF1 signaling pathway (pathway analysis)", "setting": "[4]", "result": "enhanced"},
      {"measurement": "transcription factors related to genes whose expression increased (ChIP-Atlas)", "setting": "[4]; Table 5", "result": "SOX2 and MYC, which are reprogramming factors necessary for the production of iPS cells, and POU2F1 (OCT1)"},
      {"measurement": "renal fibrosis progressing with aging (aSMA and Colla1 mRNA)", "setting": "[5]", "result": "inhibited"}
    ]}
  ]
}
